Experimental data from US20260327246A1, “FUSED RING KRAS INHIBITORS FOR TREATING DISEASE” (BLOSSOMHILL THERAPEUTICS, INC., priority 2023, published 2026).

Columns and labels:
SW620 (KRAS G12V) = assay: Cell Proliferation Assay (CellTiter-Glo 2.0), SW620; format: cell-based; conditions: Homo sapiens, SW-620; SW620 (KRAS G12V) cells; 72 hours at 37° C., 5% CO2; read-out: Anti-proliferation IC50, SW620 (KRAS G12V)
Protocol: (§1) Two thousand KRAS mutant cells per well are seeded in 384-well white plate and then treated with indicated compounds for 72 hours at 37° C. and 5% CO2. Cell proliferation is measured using CellTiter-Glo 2.0 luciferase-based ATP detection assay (Promega, Madison, WI) following the manufacturer's protocol. IC50 values are determined using Prism software (GraphPad Software, San Diego, CA).

GP2D (KRAS G12D) = assay: Cell Proliferation Assay (CellTiter-Glo 2.0), GP2D; format: cell-based; conditions: GP2D (KRAS G12D) cells; 72 hours at 37° C., 5% CO2; read-out: Anti-proliferation IC50, GP2D (KRAS G12D)
Protocol: as §1

| Structure (SMILES) | IC50 (SW620 (KRAS G12V)) [µM] | IC50 (GP2D (KRAS G12D)) [µM] |
| --- | --- | --- |
| C#Cc1c(F)ccc2cc(O)cc(-c3nc4c5c(nc(OC[C@@]67CCCN6C[C@H](F)C7)nc5c3F)N3CCCCC3C(O)C4)c12 (stereo partly drawn) [compound 29, 5-(8-ethynyl-7-fluoro-3-hydroxynaphthalen-1-yl)-4-fluoro-2-{[(2R,7aS)-2-fluorotetrahydro-1H-pyrrolizin-7a(5H)-yl]methoxy}-8,8a,9,10,11,12-hexahydro-7H-1,3,6,12a-tetraazabenzo[4,5]cyclohepta[1,2,3-de]naphthalen-8-ol] | 0.142 | 0.014 |
| C#Cc1c(F)ccc2cc(O)cc(-c3nc4c5c(nc(OC[C@@]67CCCN6C[C@H](F)C7)nc5c3F)N3CCCCC3=C4C)c12 [compound 30, 5-ethynyl-6-fluoro-4-(4-fluoro-2-{[(2R,7aS)-2-fluorotetrahydro-1H-pyrrolizin-7a(5H)-yl]methoxy}-7-methyl-8,9,10,11-tetrahydropyrido[1,2-g]pyrimido[4,5,6-de][1,6]naphthyridin-5-yl)naphthalen-2-ol] | 1.72 | 0.819 |
| CCc1c(F)ccc2cc(O)cc(-c3nc4c5c(nc(OC[C@@]67CCCN6C[C@H](F)C7)nc5c3F)N3CCCCC3C=C4)c12 (stereo partly drawn) [compound 31, 5-ethyl-6-fluoro-4-(4-fluoro-2-{[(2R,7aS)-2-fluorotetrahydro-1H-pyrrolizin-7a(5H)-yl]methoxy}-9,10,11,12-tetrahydro-8aH-1,3,6,12a-tetraazabenzo[4,5]cyclohepta[1,2,3-de]naphthalen-5-yl)naphthalen-2-ol] | 0.591 | 0.136 |
| C=Cc1c(F)ccc2cc(O)cc(-c3nc4c5c(nc(OC[C@@]67CCCN6C[C@H](F)C7)nc5c3F)N3CCCCC3C(C#N)C4)c12 (stereo partly drawn) [compound 32, 5-(8-ethenyl-7-fluoro-3-hydroxynaphthalen-1-yl)-4-fluoro-2-{[(2R,7aS)-2-fluorotetrahydro-1H-pyrrolizin-7a(5H)-yl]methoxy}-8,8a,9,10,11,12-hexahydro-7H-1,3,6,12a-tetraazabenzo[4,5]cyclohepta[1,2,3-de]naphthalene-8-carbonitrile] | 2.04 | 0.461 |
